Results: PMC6112376, “Comprehensive Analyses and Prioritization of Tox21 10K Chemicals Affecting Mitochondrial Function by in-Depth Mechanistic Studies” (Environmental Health Perspectives, 2018)
Like-named read-outs stand apart in the source and are kept apart here.

How the values were obtained:
[1] = test system: Nrf2/ARE (ARE-bla HepG2 cells); assay: ARE β-lactamase reporter gene assay; format: cell-based, human
[2] = test system: rat primary hepatocytes
[3] = test system: Caenorhabditis elegans (Bristol N2); conditions: Bristol N2 (wild type), Caenorhabditis elegans, in vivo
[4] = test system: p53 (p53-bla HCT-116 cells); assay: p53 β-lactamase reporter gene assay; format: cell-based, human; conditions: 16 h incubation, mean±SD of three experiments
[5] = test system: hNSC; assay: MMP assay in human neural stem cells (hNSC); format: cell-based; conditions: Homo sapiens, Neural stem cell, 1 h, read-out: hNSC IC50 (MMP)
[6] = biological target: T1, mitochondrial respiratory chain complex II (Rattus norvegicus, UniProt P21913+Q641Z9+Q6PCT8+Q920L2); assay: Respiratory chain complex II activity; format: biochemical; conditions: at 0.8μM; mean±SD of three experiments
T1 construct: Submitochondrial particles were prepared by subjecting the intact rat mitochondria, isolated as described above, to three successive freeze–thaw cycles; from tissue; host or cells: rat liver mitochondria (submitochondrial particles)

[7] = test system: isolated rat liver mitochondria; assay: Oxygen consumption, Clark-type oxygen electrode; format: biochemical
[8] = test system: HeLa cells expressing YFP-Parkin; assay: Parkin translocation assay; format: cell-based, human
[9] = test system: Caenorhabditis elegans (Bristol N2); assay: C. elegans larval development and growth assay; conditions: for minimal effective concentration: Caenorhabditis elegans, read-out: LEC EXT: lowest effect concentration for extinction, a measure of nematode size
[10] = test system: Caenorhabditis elegans strain PE255; assay: In vivo C. elegans ATP status assay; conditions: for minimal effective concentration: Caenorhabditis elegans, read-out: LEC LUM: lowest effect concentration for luminescence, a measure of nematode ATP content
[11] = test system: HepG2 cells; assay: Intracellular ATP content (cell viability) assay; format: cell-based, human; conditions: Homo sapiens, HepG2, 40 h
[12] = test system: HepG2 cells; assay: cells; conditions: Homo sapiens; for Emax: HepG2, read-out: MMP assays efficacy (%) HepG2
[13] = test system: mitochondrial respiratory chain complex IV; format: biochemical, rat
[14] = test system: rat primary hepatocytes; assay: MMP assay in rat primary hepatocytes; conditions: Rattus norvegicus, Hepatocyte
[15] = test system: mitochondrial respiratory chain complex III; format: biochemical, rat
[16] = test system: HepG2 cells; conditions: cited from earlier work
[17] = test system: mitochondrial respiratory chain complex I; format: biochemical, rat
[18] = test system: mitochondrial respiratory chain complex V; format: biochemical, rat; conditions: at 20μM
[19] = test system: HepG2 cells; assay: ROS-Glo hydrogen peroxide (ROS) assay; format: cell-based, human; conditions: Homo sapiens, HepG2, 2 h, read-out: ROS (HepG2) EC50
[20] = test system: Caenorhabditis elegans strain PE255; conditions: PE255 [sur-5::luc+::gfp; rol-6(su1006)], Caenorhabditis elegans, in vivo
[21] = read-out: ATP (HepG2, galactose) IC50
[22] = read-out: ATP (HepG2, glucose) IC50
[23] = HepG2, 1 h, read-out: HepG2 IC50 Galactose (MMP)
[24] = HepG2, 1 h, read-out: HepG2 IC50 Glucose (MMP)
[25] = HepG2, read-out: MMP assays IC50 (µM) HepG2
[26] = 1 h, read-out: Rat hepatocytes IC50 (MMP)
[27] = read-out: MMP assays IC50 (µM) Rat Hepatocytes

T1 sequence (Q920L2 35-656): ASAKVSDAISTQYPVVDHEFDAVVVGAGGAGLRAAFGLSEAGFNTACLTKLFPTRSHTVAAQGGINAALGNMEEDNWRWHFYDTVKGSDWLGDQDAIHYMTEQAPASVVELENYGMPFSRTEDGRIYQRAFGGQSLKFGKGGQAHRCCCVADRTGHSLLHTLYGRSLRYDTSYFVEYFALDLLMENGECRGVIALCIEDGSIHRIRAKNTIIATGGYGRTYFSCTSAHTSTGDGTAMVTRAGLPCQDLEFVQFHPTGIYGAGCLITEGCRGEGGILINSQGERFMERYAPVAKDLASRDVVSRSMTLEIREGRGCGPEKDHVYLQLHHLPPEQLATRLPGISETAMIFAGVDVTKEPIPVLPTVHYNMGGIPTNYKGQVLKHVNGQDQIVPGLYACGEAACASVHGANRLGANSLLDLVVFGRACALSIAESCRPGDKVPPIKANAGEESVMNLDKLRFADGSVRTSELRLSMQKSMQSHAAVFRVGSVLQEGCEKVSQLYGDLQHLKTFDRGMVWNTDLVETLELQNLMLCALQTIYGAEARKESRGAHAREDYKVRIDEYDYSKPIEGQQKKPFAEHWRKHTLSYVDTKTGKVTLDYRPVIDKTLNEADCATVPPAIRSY
T1 sequence (P21913 31-282): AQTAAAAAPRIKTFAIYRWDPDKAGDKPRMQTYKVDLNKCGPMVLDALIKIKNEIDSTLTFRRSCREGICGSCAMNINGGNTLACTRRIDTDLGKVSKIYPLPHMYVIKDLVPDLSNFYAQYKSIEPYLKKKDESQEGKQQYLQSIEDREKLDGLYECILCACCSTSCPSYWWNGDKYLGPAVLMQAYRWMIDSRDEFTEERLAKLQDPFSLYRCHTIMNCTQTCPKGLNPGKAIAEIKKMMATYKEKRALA
T1 sequence (Q641Z9 1-169): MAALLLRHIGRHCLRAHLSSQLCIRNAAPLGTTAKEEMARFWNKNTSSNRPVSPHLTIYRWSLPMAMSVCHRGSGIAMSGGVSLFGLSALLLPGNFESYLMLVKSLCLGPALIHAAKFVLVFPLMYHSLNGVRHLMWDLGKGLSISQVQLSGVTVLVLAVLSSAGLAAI
T1 sequence (Q6PCT8 57-159): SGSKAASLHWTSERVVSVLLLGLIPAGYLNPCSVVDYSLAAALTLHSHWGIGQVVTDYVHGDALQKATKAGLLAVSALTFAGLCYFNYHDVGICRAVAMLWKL

O=C(Nc1ccc(Oc2ccc(Cl)cc2)c(Cl)c1)c1cc(I)cc(I)c1O [Rafoxanide, reference compound]
ARE (HepG2) EC50 ([1]; 16 h incubation, mean±SD of three experiments): Inactive
MMP assays efficacy (%) Rat Hepatocytes [2]: -91±18%
Rat hepatocytes (efficacy) (MMP) [2]: 4.50±0.81 ( −72.1±10.3 ) %
LEC (lowest effect concentration), larval growth assay [3]: ≤ 10 µM
EC50 ([4]; Homo sapiens): 9.11 ± 3.81 µM
IC50 [5]: 10.3 µM
inhibition at 0.8 µM [6]: 44.4 ± 6.56%
Potential Mechanism [7]: Uncoupler + inhibitor
I-ADP, % of control (O2 consumption rate) ([7]; 0.0064 µM): 93 (51.1) % of control
I-sub, % of control (O2 consumption rate) ([7]; 0.0064 µM): 94 (12.3) % of control
II-ADP, % of control (O2 consumption rate) ([7]; 0.0064 µM): 100 (88.4) % of control
II-sub, % of control (O2 consumption rate) ([7]; 0.0064 µM): 99 (24.3) % of control
I-ADP, % of control (O2 consumption rate) ([7]; 0.032 µM): 90 (41.4) % of control
I-sub, % of control (O2 consumption rate) ([7]; 0.032 µM): 118 (13.2) % of control
II-ADP, % of control (O2 consumption rate) ([7]; 0.032 µM): 70 (52.6) % of control
II-sub, % of control (O2 consumption rate) ([7]; 0.032 µM): 97 (20.0) % of control
I-ADP, % of control (O2 consumption rate) ([7]; 0.16 µM): 105 (48.3) % of control
I-sub, % of control (O2 consumption rate) ([7]; 0.16 µM): 163 (18.3) % of control
II-ADP, % of control (O2 consumption rate) ([7]; 0.16 µM): 63 (47.1) % of control
II-sub, % of control (O2 consumption rate) ([7]; 0.16 µM): 116 (23.9) % of control
I-ADP, % of control (O2 consumption rate) ([7]; 0.8 µM): 121 (55.6) % of control
I-sub, % of control (O2 consumption rate) ([7]; 0.8 µM): 379 (42.5) % of control
II-ADP, % of control (O2 consumption rate) ([7]; 0.8 µM): 45 (33.6) % of control
II-sub, % of control (O2 consumption rate) ([7]; 0.8 µM): 137 (28.2) % of control
I-ADP, % of control (O2 consumption rate) ([7]; 4 µM): 95 (43.7) % of control
I-sub, % of control (O2 consumption rate) ([7]; 4 µM): 399 (44.7) % of control
II-ADP, % of control (O2 consumption rate) ([7]; 4 µM): 23 (17.4) % of control
II-sub, % of control (O2 consumption rate) ([7]; 4 µM): 88 (18.1) % of control
I-ADP, % of control (O2 consumption rate) ([7]; 20 µM): 15 (7.1) % of control
I-sub, % of control (O2 consumption rate) ([7]; 20 µM): 116 (13.0) % of control
II-ADP, % of control (O2 consumption rate) ([7]; 20 µM): 15 (11.3) % of control
II-sub, % of control (O2 consumption rate) ([7]; 20 µM): 55 (11.4) % of control
Parkin recruitment [8]: Active
EXT: mean difference in nematode size relative to plate controls ([9]; 0.5 µM): -0.03197
EXT: mean difference in nematode size relative to plate controls ([9]; 1 µM): 0.04544
EXT: mean difference in nematode size relative to plate controls ([9]; 5 µM): 0.3092
EXT: mean difference in nematode size relative to plate controls ([9]; 10 µM): 0.3633
EXT: mean difference in nematode size relative to plate controls ([9]; 25 µM): 1.242
EXT: mean difference in nematode size relative to plate controls ([9]; 50 µM): 1.69
EXT: mean difference in nematode size relative to plate controls ([9]; 75 µM): 0.8224
EXT: mean difference in nematode size relative to plate controls ([9]; 100 µM): 0.8924
minimal effective concentration [9]: 2.5 µM
LUM: mean difference in luminescence (ATP content) relative to plate controls ([10]; 0.5 µM): 0.09174
LUM: mean difference in luminescence (ATP content) relative to plate controls ([10]; 1 µM): -0.0514
LUM: mean difference in luminescence (ATP content) relative to plate controls ([10]; 5 µM): 0.4289
LUM: mean difference in luminescence (ATP content) relative to plate controls ([10]; 10 µM): 0.2032
LUM: mean difference in luminescence (ATP content) relative to plate controls ([10]; 25 µM): 0.5878
LUM: mean difference in luminescence (ATP content) relative to plate controls ([10]; 50 µM): 0.4453
LUM: mean difference in luminescence (ATP content) relative to plate controls ([10]; 75 µM): 0.5488
LUM: mean difference in luminescence (ATP content) relative to plate controls ([10]; 100 µM): 0.6986
minimal effective concentration [10]: 75 µM
IC50 [11, 21]: 54.1 µM
IC50 [11, 22]: 46.7 µM
IC50 [12, 23]: 18.6 µM
IC50 [12, 24]: 20.9 µM
IC50 [12, 25]: 1.23 µM
Emax [12]: 119%
Complex IV % inhibition (activity call) [13]: Inactive
IC50 [14, 26]: 4.5 µM
IC50 [14, 27]: 1.86 ± 0.83 µM
Complex III % inhibition (activity call) [15]: Inactive
MMP assays efficacy (%) qHTS-HepG2 [16]: -110±8%
IC50 ([16]; read-out: MMP assays IC50 (µM), qHTS-HepG2): 3.27 ± 1.76 µM
Complex I % inhibition (activity call) [17]: Inactive
Complex V % inhibition [18]: 40.1±1.87 at 20μM %
EC50 [19]: 26.5 µM

O=C1c2c(O)ccc([N+](=O)[O-])c2C(=O)c2c([N+](=O)[O-])ccc(O)c21 [1,8-Dihydroxy-4,5-dinitroanthraquinone]
EC50 ([1]; Homo sapiens, HepG2, 16 h, read-out: ARE (HepG2) EC50): 2.43 ± 1.38 µM
MMP assays efficacy (%) Rat Hepatocytes [2]: -79±33%
Rat hepatocytes (efficacy) (MMP) [2]: 16.09±6.94 ( −119±28.1 ) %
p53 (HCT-116) EC50 [4]: Inactive
IC50 [5]: 3 µM
Potential Mechanism [7]: Uncoupler at low concentrations (0.8 - 4µM), and uncoupler + inhibitor at high concentrations (20-100 µM)
I-ADP, % of control (O2 consumption rate) ([7]; 0.16 µM): 106 (52.0) % of control
I-sub, % of control (O2 consumption rate) ([7]; 0.16 µM): 104 (16.8) % of control
II-ADP, % of control (O2 consumption rate) ([7]; 0.16 µM): 98 (75.7) % of control
II-sub, % of control (O2 consumption rate) ([7]; 0.16 µM): 98 (29.9) % of control
I-ADP, % of control (O2 consumption rate) ([7]; 0.8 µM): 102 (50.0) % of control
I-sub, % of control (O2 consumption rate) ([7]; 0.8 µM): 139 (22.3) % of control
II-ADP, % of control (O2 consumption rate) ([7]; 0.8 µM): 102 (78.8) % of control
II-sub, % of control (O2 consumption rate) ([7]; 0.8 µM): 132 (40.5) % of control
I-ADP, % of control (O2 consumption rate) ([7]; 4 µM): 119 (58.8) % of control
I-sub, % of control (O2 consumption rate) ([7]; 4 µM): 327 (52.6) % of control
II-ADP, % of control (O2 consumption rate) ([7]; 4 µM): 104 (80.3) % of control
II-sub, % of control (O2 consumption rate) ([7]; 4 µM): 206 (63.1) % of control
I-ADP, % of control (O2 consumption rate) ([7]; 20 µM): 95 (47.0) % of control
I-sub, % of control (O2 consumption rate) ([7]; 20 µM): 311 (50.0) % of control
II-ADP, % of control (O2 consumption rate) ([7]; 20 µM): 40 (30.9) % of control
II-sub, % of control (O2 consumption rate) ([7]; 20 µM): 108 (33.0) % of control
I-ADP, % of control (O2 consumption rate) ([7]; 100 µM): 35 (10.0) % of control
I-sub, % of control (O2 consumption rate) ([7]; 100 µM): 84 (10.0) % of control
II-ADP, % of control (O2 consumption rate) ([7]; 100 µM): 49 (17.8) % of control
II-sub, % of control (O2 consumption rate) ([7]; 100 µM): 141 (20.8) % of control
Parkin recruitment [8]: Inactive
minimal effective concentration [9]: 75 µM
minimal effective concentration [10]: 10 µM
IC50 [11, 21]: 17 µM
IC50 [11, 22]: 27 µM
IC50 [12, 23]: 2.81 µM
IC50 [12, 24]: 1.79 µM
IC50 [12, 25]: 0.45 µM
Emax [12]: 86%
LEC (lowest effect concentration), ATP assay [20]: ≤ 10 µM
IC50 [14, 26]: 16.1 µM
IC50 [14, 27]: 5.69 ± 2.62 µM
MMP assays efficacy (%) qHTS-HepG2 [16]: -86±5%
IC50 ([16]; read-out: MMP assays IC50 (µM) qHTS-HepG2): 0.07 ± 0.04 µM
EC50 [19]: 34.3 µM
